Read-outs that look alike come from different tables or passages of the source. Positions of bridges follow the written chain, without caps; N, C: chain ends. Non-standard residues stand in square brackets, D forms with d. Residues, ends and D or L forms follow the SMILES beside them. Trp(1-Me) = Cn1cc(C[C@H](N)C(=O)O)c2ccccc21
Tests used:
Assay in all cases: cell-based
hNav1.5 = hNav1.5 (Homo sapiens, UniProt Q14524); conditions: IonWorks Quattro, read-out: IWQ Use Nav1.5
hNav1.7 = hNav1.7 (Homo sapiens, UniProt Q15858); type: cell-based; conditions: IonWorks Quattro, read-out: IWQ Use Nav1.7
hNav1.3 = hNav1.3 (Homo sapiens, UniProt Q9NY46); conditions: IonWorks Quattro, read-out: IWQ Use Nav1.3

hNav1.5, sequence (Q14524 whole entry, looked up): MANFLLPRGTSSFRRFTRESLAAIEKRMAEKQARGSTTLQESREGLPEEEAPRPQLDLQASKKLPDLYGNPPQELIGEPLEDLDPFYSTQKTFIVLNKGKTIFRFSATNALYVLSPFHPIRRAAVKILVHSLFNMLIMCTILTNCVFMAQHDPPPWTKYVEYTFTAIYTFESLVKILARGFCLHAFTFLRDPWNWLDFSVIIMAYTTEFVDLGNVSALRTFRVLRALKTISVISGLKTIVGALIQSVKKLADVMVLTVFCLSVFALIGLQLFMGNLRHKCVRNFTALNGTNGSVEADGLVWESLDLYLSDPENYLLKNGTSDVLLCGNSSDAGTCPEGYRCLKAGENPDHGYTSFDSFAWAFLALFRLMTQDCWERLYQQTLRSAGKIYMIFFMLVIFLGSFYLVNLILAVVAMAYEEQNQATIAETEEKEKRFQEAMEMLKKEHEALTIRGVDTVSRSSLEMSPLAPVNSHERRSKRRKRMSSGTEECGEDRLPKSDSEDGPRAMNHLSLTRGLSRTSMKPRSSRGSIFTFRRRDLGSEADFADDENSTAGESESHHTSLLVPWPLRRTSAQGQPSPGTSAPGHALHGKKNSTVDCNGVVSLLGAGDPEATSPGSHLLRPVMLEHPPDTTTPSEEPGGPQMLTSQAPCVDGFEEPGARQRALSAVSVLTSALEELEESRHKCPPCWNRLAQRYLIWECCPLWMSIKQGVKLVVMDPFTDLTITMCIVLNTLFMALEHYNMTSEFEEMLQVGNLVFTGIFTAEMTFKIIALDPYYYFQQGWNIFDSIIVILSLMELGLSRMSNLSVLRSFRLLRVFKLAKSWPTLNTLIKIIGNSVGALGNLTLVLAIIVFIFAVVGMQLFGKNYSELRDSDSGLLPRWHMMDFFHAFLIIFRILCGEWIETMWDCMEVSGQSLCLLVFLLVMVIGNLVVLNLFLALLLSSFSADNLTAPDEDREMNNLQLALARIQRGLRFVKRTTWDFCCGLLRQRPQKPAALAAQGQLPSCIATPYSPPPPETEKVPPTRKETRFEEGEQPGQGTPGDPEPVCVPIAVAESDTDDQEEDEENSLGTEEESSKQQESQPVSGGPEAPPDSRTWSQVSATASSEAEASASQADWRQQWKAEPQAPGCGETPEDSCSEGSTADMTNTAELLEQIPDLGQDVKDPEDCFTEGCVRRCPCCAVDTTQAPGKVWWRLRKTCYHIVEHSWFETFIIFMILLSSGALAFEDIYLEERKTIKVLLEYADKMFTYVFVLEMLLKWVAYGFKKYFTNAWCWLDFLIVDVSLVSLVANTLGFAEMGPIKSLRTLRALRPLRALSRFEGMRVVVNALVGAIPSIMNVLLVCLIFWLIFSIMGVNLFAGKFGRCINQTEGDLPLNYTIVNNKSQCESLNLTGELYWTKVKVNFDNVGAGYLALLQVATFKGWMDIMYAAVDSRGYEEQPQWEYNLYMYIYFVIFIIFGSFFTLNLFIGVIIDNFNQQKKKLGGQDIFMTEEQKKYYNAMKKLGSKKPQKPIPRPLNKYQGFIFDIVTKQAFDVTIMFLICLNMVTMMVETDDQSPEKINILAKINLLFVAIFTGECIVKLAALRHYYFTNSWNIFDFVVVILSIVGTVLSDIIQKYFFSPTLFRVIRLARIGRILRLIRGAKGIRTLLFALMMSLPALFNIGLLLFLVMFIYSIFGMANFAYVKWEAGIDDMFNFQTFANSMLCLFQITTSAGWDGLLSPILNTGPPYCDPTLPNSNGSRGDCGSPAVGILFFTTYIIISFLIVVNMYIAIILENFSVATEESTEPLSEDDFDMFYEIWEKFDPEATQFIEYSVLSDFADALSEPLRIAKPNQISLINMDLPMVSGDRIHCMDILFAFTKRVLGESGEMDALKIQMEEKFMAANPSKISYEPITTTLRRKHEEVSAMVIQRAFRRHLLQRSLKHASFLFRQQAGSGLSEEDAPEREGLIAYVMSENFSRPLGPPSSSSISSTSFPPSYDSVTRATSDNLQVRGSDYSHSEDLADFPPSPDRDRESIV
hNav1.7, sequence (Q15858 whole entry, looked up): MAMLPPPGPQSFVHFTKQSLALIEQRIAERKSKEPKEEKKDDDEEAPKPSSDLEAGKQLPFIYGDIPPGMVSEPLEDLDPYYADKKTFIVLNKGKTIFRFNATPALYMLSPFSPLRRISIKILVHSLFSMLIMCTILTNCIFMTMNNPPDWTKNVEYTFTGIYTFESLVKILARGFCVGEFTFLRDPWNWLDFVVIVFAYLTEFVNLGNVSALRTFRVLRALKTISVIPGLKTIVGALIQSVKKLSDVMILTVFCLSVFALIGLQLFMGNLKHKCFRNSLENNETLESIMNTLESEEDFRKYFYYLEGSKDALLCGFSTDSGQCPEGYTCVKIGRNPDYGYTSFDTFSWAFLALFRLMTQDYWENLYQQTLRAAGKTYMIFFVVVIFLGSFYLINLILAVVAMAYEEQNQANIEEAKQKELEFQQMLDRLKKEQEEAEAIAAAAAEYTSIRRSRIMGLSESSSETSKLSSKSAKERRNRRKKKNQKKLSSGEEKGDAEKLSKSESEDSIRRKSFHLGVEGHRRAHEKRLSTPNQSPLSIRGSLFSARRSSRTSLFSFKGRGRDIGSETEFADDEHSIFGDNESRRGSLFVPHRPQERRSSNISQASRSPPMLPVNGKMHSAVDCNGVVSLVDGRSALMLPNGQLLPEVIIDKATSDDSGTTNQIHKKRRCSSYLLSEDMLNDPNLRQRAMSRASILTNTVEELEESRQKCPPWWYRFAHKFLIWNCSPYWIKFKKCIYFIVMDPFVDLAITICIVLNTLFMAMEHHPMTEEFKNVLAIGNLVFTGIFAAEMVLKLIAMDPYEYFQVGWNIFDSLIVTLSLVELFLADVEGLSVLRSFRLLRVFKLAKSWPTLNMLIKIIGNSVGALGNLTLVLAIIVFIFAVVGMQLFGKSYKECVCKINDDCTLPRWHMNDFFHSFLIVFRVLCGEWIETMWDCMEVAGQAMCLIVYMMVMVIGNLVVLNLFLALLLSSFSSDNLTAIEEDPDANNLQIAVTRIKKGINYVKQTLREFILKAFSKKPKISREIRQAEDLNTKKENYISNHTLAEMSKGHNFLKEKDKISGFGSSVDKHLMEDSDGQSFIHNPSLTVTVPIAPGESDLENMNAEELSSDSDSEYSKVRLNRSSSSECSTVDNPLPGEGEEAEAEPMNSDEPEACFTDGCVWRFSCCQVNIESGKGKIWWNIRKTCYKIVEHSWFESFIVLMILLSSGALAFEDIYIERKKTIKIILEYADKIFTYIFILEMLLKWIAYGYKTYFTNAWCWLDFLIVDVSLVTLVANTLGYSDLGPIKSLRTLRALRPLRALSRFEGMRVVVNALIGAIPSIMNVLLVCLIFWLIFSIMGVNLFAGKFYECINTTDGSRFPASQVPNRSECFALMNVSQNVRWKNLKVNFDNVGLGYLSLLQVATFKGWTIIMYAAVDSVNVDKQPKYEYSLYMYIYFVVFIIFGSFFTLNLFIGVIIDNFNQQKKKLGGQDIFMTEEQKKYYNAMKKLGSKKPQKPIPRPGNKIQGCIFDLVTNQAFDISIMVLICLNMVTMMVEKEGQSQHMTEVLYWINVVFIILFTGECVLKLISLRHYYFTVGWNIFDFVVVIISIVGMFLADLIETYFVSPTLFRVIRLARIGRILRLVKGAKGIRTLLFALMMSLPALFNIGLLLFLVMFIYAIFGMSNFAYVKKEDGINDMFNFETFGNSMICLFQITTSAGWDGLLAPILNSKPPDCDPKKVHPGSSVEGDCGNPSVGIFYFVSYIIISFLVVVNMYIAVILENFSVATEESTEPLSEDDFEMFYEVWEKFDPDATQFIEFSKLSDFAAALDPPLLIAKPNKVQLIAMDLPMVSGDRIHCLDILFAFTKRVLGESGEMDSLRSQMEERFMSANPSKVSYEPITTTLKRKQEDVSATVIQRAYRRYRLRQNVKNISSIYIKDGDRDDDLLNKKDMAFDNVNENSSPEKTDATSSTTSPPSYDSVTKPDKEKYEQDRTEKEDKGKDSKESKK

| SMILES | IC50 (hNav1.5; Use) [nM] | IC50 (hNav1.7; Use) [nM] | IC50 (hNav1.3; Use) [nM] | also measured |
| --- | --- | --- | --- | --- |
| CC[C@H](C)[C@@H]1NC(=O)[C@@H]2CCCN2C(=O)[C@H]([C@@H](C)CC)NC(=O)[C@@H]2CSSC[C@@H]3NC(=O)[C@H](C(C)C)NC(=O)[C@H](CC(C)C)NC(=O)[C@H](CC(N)=O)NC(=O)[C@@H]4CCCN4C(=O)[C@H](CCCNC(=N)N)NC(=O)[C@H](CSSC[C@H](NC(=O)[C@@H](N)CC(=O)O)C(=O)N[C@@H](CC(C)C)C(=O)NCC(=O)N[C@@H](Cc4ccccc4)C(=O)N[C@@H](CCSC)C(=O)N[C@@H](CCCNC(=N)N)C(=O)N[C@@H](CCCCN)C(=O)N2)NC(=O)[C@H](CSSC[C@@H](C(=O)N[C@@H](CCCCN)C(=O)N[C@@H](Cc2ccc(O)cc2)C(=O)N[C@H](C(=O)N[C@@H](Cc2ccccc2)C(N)=O)C(C)C)NC(=O)[C@H](Cc2c[nH]c4ccccc24)NC(=O)[C@H](CCCCN)NC(=O)[C@H](Cc2c[nH]cn2)NC(=O)[C@H]([C@@H](C)O)NC(=O)[C@H](CCCNC(=N)N)NC(=O)[C@H](CO)NC3=O)NC(=O)[C@H](CCCCN)NC(=O)[C@H](CC(=O)O)NC(=O)[C@H](CC(N)=O)NC1=O [compound 195] (H-DCLGFMRKCIPINDKCCRPNLVCSRTHKWCKYVF-NH2; disulfide 2-17, 9-23, 16-30) | 18300 | 662 | 607 |  |
| CC[C@H](C)[C@@H]1NC(=O)[C@@H]2CSSC[C@@H]3NC(=O)[C@H](C(C)C)NC(=O)[C@H](CC(C)C)NC(=O)[C@H](CC(N)=O)NC(=O)[C@@H]4CCCN4C(=O)[C@H](CCCNC(=N)N)NC(=O)[C@H](CSSC[C@H](NC(=O)[C@@H](N)CC(=O)O)C(=O)N[C@@H](CC(C)C)C(=O)NCC(=O)N[C@@H](Cc4ccccc4)C(=O)N[C@@H](CCSC)C(=O)N[C@@H](CCCNC(=N)N)C(=O)N[C@@H](CCCCN)C(=O)N2)NC(=O)[C@H](CSSC[C@@H](C(=O)N[C@@H](CCCCN)C(=O)N[C@@H](Cc2ccc(O)cc2)C(=O)N[C@H](C(=O)N[C@@H](Cc2ccccc2)C(N)=O)C(C)C)NC(=O)[C@H](Cc2c[nH]c4ccccc24)NC(=O)[C@H](CCCCN)NC(=O)[C@H](Cc2c[nH]cn2)NC(=O)[C@H]([C@@H](C)O)NC(=O)[C@H](CCCNC(=N)N)NC(=O)[C@H](CO)NC3=O)NC(=O)[C@H](CCCCN)NC(=O)[C@H](CC(=O)O)NC(=O)[C@H](CC(N)=O)NC(=O)[C@H]([C@@H](C)O)NC(=O)[C@@H]2CCCN2C1=O [compound 196] (H-DCLGFMRKCIPTNDKCCRPNLVCSRTHKWCKYVF-NH2; disulfide 2-17, 9-23, 16-30) | 7080 | 97 | 74 |  |
| CC[C@H](C)[C@@H]1NC(=O)[C@@H]2CSSC[C@@H]3NC(=O)[C@H](C(C)C)NC(=O)[C@H](CC(C)C)NC(=O)[C@H](CC(N)=O)NC(=O)[C@@H]4CCCN4C(=O)[C@H](CCCNC(=N)N)NC(=O)[C@H](CSSC[C@H](NC(=O)[C@@H](N)CC(=O)O)C(=O)N[C@@H](CC(C)C)C(=O)NCC(=O)N[C@@H](Cc4ccccc4)C(=O)N[C@@H](CCSC)C(=O)N[C@@H](CCCNC(=N)N)C(=O)N[C@@H](CCCCN)C(=O)N2)NC(=O)[C@H](CSSC[C@@H](C(=O)N[C@@H](CCCCN)C(=O)N[C@@H](Cc2ccc(O)cc2)C(=O)N[C@H](C(=O)N[C@@H](Cc2ccccc2)C(N)=O)C(C)C)NC(=O)[C@H](Cc2c[nH]c4ccccc24)NC(=O)[C@H](CCCCN)NC(=O)[C@H](Cc2c[nH]cn2)NC(=O)[C@H]([C@@H](C)O)NC(=O)[C@H](CCCNC(=N)N)NC(=O)[C@H](CO)NC3=O)NC(=O)[C@H](CCCCN)NC(=O)[C@H](CC(=O)O)NC(=O)[C@H](CC(N)=O)NC(=O)[C@H](Cc2ccc(O)cc2)NC(=O)[C@@H]2CCCN2C1=O [compound 197] (H-DCLGFMRKCIPYNDKCCRPNLVCSRTHKWCKYVF-NH2; disulfide 2-17, 9-23, 16-30) | 6920 | 98 | 42 |  |
| CC[C@H](C)[C@@H]1NC(=O)[C@@H]2CSSC[C@@H]3NC(=O)[C@H](C(C)C)NC(=O)[C@H](CC(C)C)NC(=O)CNC(=O)[C@@H]4CCCN4C(=O)[C@H](CCCNC(=N)N)NC(=O)[C@H](CSSC[C@H](NC(=O)[C@@H](N)CC(=O)O)C(=O)N[C@@H](CC(C)C)C(=O)NCC(=O)N[C@@H](Cc4ccccc4)C(=O)N[C@@H](CCSC)C(=O)N[C@@H](CCCNC(=N)N)C(=O)N[C@@H](CCCCN)C(=O)N2)NC(=O)[C@H](CSSC[C@@H](C(=O)N[C@@H](CCCCN)C(=O)N[C@@H](Cc2ccc(O)cc2)C(=O)N[C@H](C(=O)N[C@@H](Cc2ccccc2)C(N)=O)C(C)C)NC(=O)[C@H](Cc2c[nH]c4ccccc24)NC(=O)[C@H](CCCCN)NC(=O)[C@H](Cc2c[nH]cn2)NC(=O)[C@H]([C@@H](C)O)NC(=O)[C@H](CCCNC(=N)N)NC(=O)[C@H](CO)NC3=O)NC(=O)[C@H](CCCCN)NC(=O)[C@H](CC(=O)O)NC(=O)[C@H](CC(N)=O)NC(=O)[C@H](CC(=O)O)NC(=O)[C@@H]2CCCN2C1=O [compound 198] (H-DCLGFMRKCIPDNDKCCRPGLVCSRTHKWCKYVF-NH2; disulfide 2-17, 9-23, 16-30) | 9750 | 229 | 126 |  |
| CC[C@H](C)[C@@H]1NC(=O)[C@@H]2CSSC[C@@H]3NC(=O)[C@H](C(C)C)NC(=O)[C@H](CC(C)C)NC(=O)[C@H](Cc4ccccc4)NC(=O)[C@@H]4CCCN4C(=O)[C@H](CCCNC(=N)N)NC(=O)[C@H](CSSC[C@H](NC(=O)[C@@H](N)CC(=O)O)C(=O)N[C@@H](CC(C)C)C(=O)NCC(=O)N[C@@H](Cc4ccccc4)C(=O)N[C@@H](CCSC)C(=O)N[C@@H](CCCNC(=N)N)C(=O)N[C@@H](CCCCN)C(=O)N2)NC(=O)[C@H](CSSC[C@@H](C(=O)N[C@@H](CCCCN)C(=O)N[C@@H](Cc2ccc(O)cc2)C(=O)N[C@H](C(=O)N[C@@H](Cc2ccccc2)C(N)=O)C(C)C)NC(=O)[C@H](Cc2c[nH]c4ccccc24)NC(=O)[C@H](CCCCN)NC(=O)[C@H](Cc2c[nH]cn2)NC(=O)[C@H]([C@@H](C)O)NC(=O)[C@H](CCCNC(=N)N)NC(=O)[C@H](CO)NC3=O)NC(=O)[C@H](CCCCN)NC(=O)[C@H](CC(=O)O)NC(=O)[C@H](CC(N)=O)NC(=O)[C@H](CC(=O)O)NC(=O)[C@@H]2CCCN2C1=O [compound 199] (H-DCLGFMRKCIPDNDKCCRPFLVCSRTHKWCKYVF-NH2; disulfide 2-17, 9-23, 16-30) | 10800 | 154 | 67 |  |
| CC[C@H](C)[C@@H]1NC(=O)[C@@H]2CSSC[C@@H]3NC(=O)[C@H](C(C)C)NC(=O)[C@H](CC(C)C)NC(=O)[C@H](Cc4ccc(O)cc4)NC(=O)[C@@H]4CCCN4C(=O)[C@H](CCCNC(=N)N)NC(=O)[C@H](CSSC[C@H](NC(=O)[C@@H](N)CC(=O)O)C(=O)N[C@@H](CC(C)C)C(=O)NCC(=O)N[C@@H](Cc4ccccc4)C(=O)N[C@@H](CCSC)C(=O)N[C@@H](CCCNC(=N)N)C(=O)N[C@@H](CCCCN)C(=O)N2)NC(=O)[C@H](CSSC[C@@H](C(=O)N[C@@H](CCCCN)C(=O)N[C@@H](Cc2ccc(O)cc2)C(=O)N[C@H](C(=O)N[C@@H](Cc2ccccc2)C(N)=O)C(C)C)NC(=O)[C@H](Cc2c[nH]c4ccccc24)NC(=O)[C@H](CCCCN)NC(=O)[C@H](Cc2c[nH]cn2)NC(=O)[C@H]([C@@H](C)O)NC(=O)[C@H](CCCNC(=N)N)NC(=O)[C@H](CO)NC3=O)NC(=O)[C@H](CCCCN)NC(=O)[C@H](CC(=O)O)NC(=O)[C@H](CC(N)=O)NC(=O)[C@H](CC(=O)O)NC(=O)[C@@H]2CCCN2C1=O [compound 200] (H-DCLGFMRKCIPDNDKCCRPYLVCSRTHKWCKYVF-NH2; disulfide 2-17, 9-23, 16-30) | 9050 | 116 | 55 |  |
| CC[C@H](C)[C@@H]1NC(=O)[C@@H]2CSSC[C@@H]3NC(=O)[C@H](C(C)C)NC(=O)[C@H](CC(C)C)NC(=O)[C@H](CC(N)=O)NC(=O)[C@@H]4CCCN4C(=O)[C@H](CCCNC(=N)N)NC(=O)[C@H](CSSC[C@H](NC(=O)[C@@H](N)CC(=O)O)C(=O)N[C@@H](CC(C)C)C(=O)NCC(=O)N[C@@H](Cc4ccccc4)C(=O)N[C@@H](CCSC)C(=O)N[C@@H](CCCNC(=N)N)C(=O)N[C@@H](CCCCN)C(=O)N2)NC(=O)[C@H](CSSC[C@@H](C(=O)N[C@@H](CCCCN)C(=O)N[C@@H](Cc2cn(C)c4ccccc24)C(=O)N[C@H](C(=O)N[C@@H](Cc2ccccc2)C(N)=O)C(C)C)NC(=O)[C@H](Cc2c[nH]c4ccccc24)NC(=O)[C@H](CCCCN)NC(=O)[C@H](Cc2c[nH]cn2)NC(=O)[C@H]([C@@H](C)O)NC(=O)[C@H](CCCNC(=N)N)NC(=O)[C@H](CO)NC3=O)NC(=O)[C@H](CCCCN)NC(=O)[C@H](CC(=O)O)NC(=O)[C@H](CC(N)=O)NC(=O)[C@H](CC(=O)O)NC(=O)[C@@H]2CCCN2C1=O [compound 246] (H-DCLGFMRKCIPDNDKCCRPNLVCSRTHKWCK[Trp(1-Me)]VF-NH2; disulfide 2-17, 9-23, 16-30) |  |  |  | IC50 (hNav1.5; Table 25, use, […]): 14400 nM; IC50 (hNav1.7; Table 25, use, […]): 60 nM; IC50 (hNav1.3; Table 25, use, […]): 30 nM |
| CC[C@H](C)[C@H](NC(=O)[C@H](Cc1ccc(O)cc1)NC(=O)[C@H](CCCCN)NC(=O)[C@@H]1CSSC[C@@H]2NC(=O)[C@H](CCCCN)NC(=O)[C@H](CC(=O)O)NC(=O)[C@H](CC(N)=O)NC(=O)[C@H](CC(=O)O)NC(=O)[C@@H]3CCCN3C(=O)[C@H]([C@@H](C)CC)NC(=O)[C@@H]3CSSC[C@H](NC(=O)[C@H](C(C)C)NC(=O)[C@H](CC(C)C)NC(=O)[C@H](CC(N)=O)NC(=O)[C@@H]4CCCN4C(=O)[C@H](CCCNC(=N)N)NC(=O)[C@H](CSSC[C@H](NC(=O)[C@@H](N)CC(=O)O)C(=O)N[C@@H](CC(C)C)C(=O)NCC(=O)N[C@@H](Cc4ccccc4)C(=O)N[C@@H](CCSC)C(=O)N[C@@H](CCCNC(=N)N)C(=O)N[C@@H](CCCCN)C(=O)N3)NC2=O)C(=O)N[C@@H](CO)C(=O)N[C@@H](CCCNC(=N)N)C(=O)N[C@@H]([C@@H](C)O)C(=O)N[C@@H](Cc2c[nH]cn2)C(=O)N[C@@H](CCCCN)C(=O)N[C@@H](Cc2c[nH]c3ccccc23)C(=O)N1)C(=O)N[C@@H](Cc1ccccc1)C(N)=O [compound 248] (H-DCLGFMRKCIPDNDKCCRPNLVCSRTHKWCKYIF-NH2; disulfide 2-17, 9-23, 16-30) |  |  |  | IC50 (hNav1.5; Table 26, use, […]): 6890 nM; IC50 (hNav1.7; Table 26, use, […]): 150 nM; IC50 (hNav1.3; Table 26, use, […]): 90 nM |
